Several values for one entry are separate records, joined by “and”; a condition that tells them apart may be missing. Identical values can stand only once. Blank lines part the entries; values can stand above or below the compound they belong to.
Key:
[1] = target: T1, BTK (Mus musculus, UniProt P35991); assay: Mouse DRF PD, BTK remaining in B cells; format: in vivo; conditions: blood, 24 h after previous dose
T1 construct: from tissue; host or cells: mouse blood B cells / splenocytes (CD-1 or BALB/c)
Description: A method of determining the pharmacodynamic profile of BTK degraders was performed by dosing either CD-1 or BALB/c mice with CTM. The CTM was prepared in a suitable formulation and was administered via oral gavage (PO) at a suitable dose level and frequency as informed by prior pharmacokinetic and tolerability studies. Following administration of CTM, BTK levels in blood or splenocytes are measured using flow cytometry or HTRF. For assessment of BTK levels via flow cytometry, either whole blood or splenocytes were first treated with ACK RBC lysis buffer to facilitate lysing of red blood cells. Remaining cells were then stained with fluorophore-conjugated antibodies against CD45, TCR beta and CD45R (B220). Cell pellets were washed with 1×PBS, fixed, and permeabilized for twenty-four hours with Foxp3/Transcription Factor Fixation/Permeabilization Kit. Cells were then stained intracellularly with unconjugated BTK antibody and detected with a fluorophore-conjugated secondary antibody. Stained cells were run on an Attune N×T Acoustic Focusing Flow Cytometer (Thermo-Fisher A29004), and data was analyzed using FlowJo (v10.5.3) and GraphPad Prism (v7.00) software. Lymphocytes were gated for B cells defined as CD45+ TCR beta−B220+ and T cells as CD45+ TCR beta+B220−. The BTK geometric mean fluorescence intensity (MFI) was calculated for B and T cells. Percent BTK degradation for each compound-treated sample was calculated using the equation described below: % Degradation=100*(Treated sample B cell BTK MFI-treated sample T cell BTK MFI)/Vehicle B cell BTK MFI-Vehicle T cell BTK MFI)
This example evaluates potency and tolerability of BTK CTMs following multiple, consecutive days of dosing and evaluates potency of compounds for BTK degradation.
The data in the table below is from a study in which animals were dosed daily with the designated oral dose. Analysis for BTK levels was performed twenty-four hours following the previous dose.

[2] = target: T2, BTK (Canis lupus familiaris, UniProt A0A8I3P3Z9); assay: PD data from dog (BTK degradation); format: in vivo; conditions: blood
T2 construct: from tissue
Excerpt: (§1) In this example, compounds were profiled for activity in non-mouse species.

[3] = system: BTK; assay: PD data from cyno (BTK degradation); format: in vivo; conditions: blood
Excerpt: as §1

[4] = system: TMD8 tumor cells; assay: TMD8 xenograft efficacy study (wild-type BTK); format: in vivo, mouse; conditions: TMD8 WT
Description: […] Tumor growth inhibition (% TGI) were calculated on the final day of measurement using the equation [1−(T−T0/C−T0)]×100, where T and C represent the mean size of tumors in the treated (T) and control (C) groups, and T0 refers to the tumor size at randomization.
(§2) This example examines the activity of various BTK CTMs in relevant disease models, including the WT and C481S TMD8 model, which models B cell malignancies with/without inhibitor-driven BTK mutations at C481.

[5] = system: 1:1 TMD8 WT:TMD8 C481S; assay: Mouse xenograft efficacy study, 1:1 TMD8 WT:TMD8 C481S model; format: in vivo; conditions: PO, 30 mg/kg, BID, 21 days of dosing
Excerpt: (§3) Efficacy in Mouse Xenograft Models
as §2

[6] = target: BTK (Homo sapiens, UniProt Q06187); assay: BTK remaining in TMD8 WT mouse xenograft study; format: in vivo; parameters: from tissue; host or cells: TMD8 xenograft in CB.17 SCID mice
Excerpt: as §3, §2

[7] = target: BTK C481S (Homo sapiens, UniProt Q06187, C481S); assay: BTK remaining in TMD8 C481S mouse xenograft study; format: in vivo; parameters: from tissue; host or cells: TMD8 BTK-C481S xenograft in CB.17 SCID mice; conditions: PO, 23 days of dosing
Excerpt: as §3, §2

[8] = target: T3, BTK (Rattus norvegicus, UniProt Q5S255); assay: PD data from rat (BTK degradation); format: in vivo; conditions: blood
T3 construct: from tissue
Excerpt: as §1

[9] = 30 mg/kg PO daily, 1 day of dosing
[10] = 30 mg/kg PO daily, 14 days of dosing
[11] = 100 mg/kg PO daily, 1 day of dosing
[12] = 100 mg/kg PO daily, 14 days of dosing
[13] = 300 mg/kg PO daily, 1 day of dosing
[14] = 300 mg/kg PO daily, 14 days of dosing
[15] = PO (water bottle), 15 mg/kg, QD (water bottle), 21 days of dosing
[16] = PO (water bottle), 35 mg/kg, QD (water bottle), 23 days of dosing

% BTK Remaining in B cells [1, 9]: 16% | % BTK Remaining in B cells [1, 10]: 16% | % BTK Remaining in B cells [1, 11]: 10% | % BTK Remaining in B cells [1, 12]: 11% | % BTK Remaining in B cells [1, 13]: 8% | % BTK Remaining in B cells [1, 14]: 10% | % BTK Remaining ([2]; 10 mg/kg PO, 2 h): 88% | % BTK Remaining ([2]; 10 mg/kg PO, 4 h): 56% | % BTK Remaining ([2]; 10 mg/kg PO, 8 h): 35% | % BTK Remaining ([2]; 10 mg/kg PO, 24 h): 19% | % BTK Remaining ([2]; 30 mg/kg PO, 2 h): 87% | % BTK Remaining ([2]; 30 mg/kg PO, 4 h): 58% | % BTK Remaining ([2]; 30 mg/kg PO, 8 h): 28% | % BTK Remaining ([2]; 30 mg/kg PO, 24 h): 14% | BTK Remaining (% relative to vehicle) [6, 15]: 7% | BTK Remaining (% relative to vehicle) [6, 16]: 18% | BTK Remaining (% relative to vehicle) ([6]; PO, 30 mg/kg, QD, 21 days of dosing): 32% and 20% | BTK Remaining (% relative to vehicle) ([7]; 5 mg/kg, BID): 44% | BTK Remaining (% relative to vehicle) ([7]; 10 mg/kg, QD): 38% | BTK Remaining (% relative to vehicle) ([7]; 15 mg/kg, BID): 25% | BTK Remaining (% relative to vehicle) ([7]; 30 mg/kg, BID): 39% and 35% | BTK Remaining (% relative to vehicle) ([7]; 30 mg/kg, QD): 51% and 42% | BTK Remaining (% relative to vehicle) ([7]; 60 mg/kg, QD): 36%
Compound: CN1CCN([C@@H]2CCCN(c3cnc(C(N)=O)c(Nc4ccc(C5CCN(C[C@H]6CCN(c7ccc8c(c7)C(=O)N(C7CCC(=O)NC7=O)C8=O)C6)CC5)cc4)n3)C2)C1=O (stereo partly shown) [Compound 44]
% BTK Remaining ([3]; 1 mg/kg IV, 2 h): 6% | % BTK Remaining ([3]; 1 mg/kg IV, 4 h): 6% | % BTK Remaining ([3]; 1 mg/kg IV, 8 h): 7% | % BTK Remaining ([3]; 1 mg/kg IV, 24 h): 9% | % BTK Remaining ([3]; 1 mg/kg PO, 2 h): 85% | % BTK Remaining ([3]; 1 mg/kg PO, 4 h): 65% | % BTK Remaining ([3]; 1 mg/kg PO, 8 h): 52% | % BTK Remaining ([3]; 1 mg/kg PO, 24 h): 40% | % BTK Remaining ([3]; 10 mg/kg PO, 2 h, 10 mg/kg): 59% and 82% | % BTK Remaining ([3]; 10 mg/kg PO, 4 h, 10 mg/kg): 35% and 42% | % BTK Remaining ([3]; 10 mg/kg PO, 8 h, 10 mg/kg): 22% and 27% | % BTK Remaining ([3]; 10 mg/kg PO, 24 h, 10 mg/kg): 15% and 29% | % BTK Remaining ([3]; 30 mg/kg PO, 2 h): 83% | % BTK Remaining ([3]; 30 mg/kg PO, 4 h): 47% | % BTK Remaining ([3]; 30 mg/kg PO, 8 h): 22% | % BTK Remaining ([3]; 30 mg/kg PO, 24 h): 17% | % BTK Remaining ([3]; 100 mg/kg PO, 2 h): 48% | % BTK Remaining ([3]; 100 mg/kg PO, 4 h): 27% | % BTK Remaining ([3]; 100 mg/kg PO, 8 h): 12% | % BTK Remaining ([3]; 100 mg/kg PO, 24 h): 8% | Tumor Growth Inhibition (relative to vehicle) [4, 15]: 29% | Tumor Growth Inhibition (relative to vehicle) [4, 16]: 89% | Tumor Growth Inhibition (relative to vehicle) ([4]; PO, 7.5 mg/kg, BID, 21 days of dosing): 100% | Tumor Growth Inhibition (relative to vehicle) ([4]; PO, 15 mg/kg, BID, 21 days of dosing): 100% | Tumor Growth Inhibition (relative to vehicle) ([4]; PO, 30 mg/kg, BID, 23 days of dosing): 99% | Tumor Growth Inhibition (relative to vehicle) ([4]; PO, 30 mg/kg, QD, 23 days of dosing): 83% | Tumor Growth Inhibition (relative to vehicle) ([4]; PO, 90 mg/kg, BID, 23 days of dosing): 100% | Tumor Growth Inhibition (relative to vehicle) ([4]; PO, 90 mg/kg, QD, 23 days of dosing): 93% | Tumor Growth Inhibition (relative to vehicle) [5]: 54%

% BTK Remaining in B cells [1, 9]: 11% | % BTK Remaining in B cells [1, 10]: 6% | % BTK Remaining in B cells [1, 11]: 3% | % BTK Remaining in B cells [1, 12]: 2% | % BTK Remaining in B cells [1, 13]: 2% | % BTK Remaining in B cells [1, 14]: <1% | % BTK Remaining ([8]; 1 mg/kg IV, 4 h): <1% | % BTK Remaining ([8]; 1 mg/kg IV, 24 h): <1% | % BTK Remaining ([8]; 10 mg/kg PO, 4 h): <1% | % BTK Remaining ([8]; 10 mg/kg PO, 24 h): <1% | % BTK Remaining ([8]; 30 mg/kg PO, 4 h): <1% | % BTK Remaining ([8]; 30 mg/kg PO, 24 h): <1%
Compound: CN1CCN([C@H]2CCCN(c3cnc(C(N)=O)c(Nc4ccc(C5CCN(CC6CCN(c7ccc(C(=O)NC8CCC(=O)NC8=O)nc7)CC6)CC5)cc4)n3)C2)C1=O (stereo partly shown) [Compound 130]
% BTK Remaining ([3]; 1 mg/kg IV, 2 h): 8% | % BTK Remaining ([3]; 1 mg/kg IV, 4 h): 6% | % BTK Remaining ([3]; 1 mg/kg IV, 8 h): 5% | % BTK Remaining ([3]; 1 mg/kg IV, 24 h): 13% | % BTK Remaining ([3]; 10 mg/kg PO, 2 h): 4% | % BTK Remaining ([3]; 10 mg/kg PO, 4 h): <1% | % BTK Remaining ([3]; 10 mg/kg PO, 8 h): <3% | % BTK Remaining ([3]; 10 mg/kg PO, 24 h): <1% | % BTK Remaining ([3]; 30 mg/kg PO, 2 h): 6% | % BTK Remaining ([3]; 30 mg/kg PO, 4 h): <1% | % BTK Remaining ([3]; 30 mg/kg PO, 8 h): <1% | % BTK Remaining ([3]; 30 mg/kg PO, 24 h): 1%

Compound: NC(=O)c1ncc(N2CCCCC2)nc1Nc1ccc(C2CCN(C[C@@H]3CCN(c4ccc5c(c4)C(=O)N(C4CCC(=O)NC4=O)C5=O)C3)CC2)cc1 (stereo partly shown) [Compound 149]
% BTK Remaining in B cells [1, 9]: 11% | % BTK Remaining in B cells [1, 10]: 8% | % BTK Remaining in B cells [1, 11]: 10% | % BTK Remaining in B cells [1, 12]: 5% | % BTK Remaining in B cells [1, 13]: 6% | % BTK Remaining in B cells [1, 14]: 2% | % BTK Remaining ([2]; 1 mg/kg IV, 2 h): 43% | % BTK Remaining ([2]; 1 mg/kg IV, 4 h): 22% | % BTK Remaining ([2]; 1 mg/kg IV, 8 h): 10% | % BTK Remaining ([2]; 1 mg/kg IV, 24 h): 11% | % BTK Remaining ([2]; 10 mg/kg PO, 2 h): 61% | % BTK Remaining ([2]; 10 mg/kg PO, 4 h): 47% | % BTK Remaining ([2]; 10 mg/kg PO, 8 h): 29% | % BTK Remaining ([2]; 10 mg/kg PO, 24 h): 17% | % BTK Remaining ([3]; 1 mg/kg IV, 2 h): 24% | % BTK Remaining ([3]; 1 mg/kg IV, 4 h): 9% | % BTK Remaining ([3]; 1 mg/kg IV, 8 h): 4% | % BTK Remaining ([3]; 1 mg/kg IV, 24 h): 7% | % BTK Remaining ([3]; 10 mg/kg PO, 2 h): 81% | % BTK Remaining ([3]; 10 mg/kg PO, 4 h): 39% | % BTK Remaining ([3]; 10 mg/kg PO, 8 h): 17% | % BTK Remaining ([3]; 10 mg/kg PO, 24 h): 12% | % BTK Remaining ([3]; 30 mg/kg PO, 2 h): 89% | % BTK Remaining ([3]; 30 mg/kg PO, 4 h): 51% | % BTK Remaining ([3]; 30 mg/kg PO, 8 h): 26% | % BTK Remaining ([3]; 30 mg/kg PO, 24 h): 19% | % BTK Remaining ([3]; 100 mg/kg PO, 2 h): 97% | % BTK Remaining ([3]; 100 mg/kg PO, 4 h): 56% | % BTK Remaining ([3]; 100 mg/kg PO, 8 h): 20% | % BTK Remaining ([3]; 100 mg/kg PO, 24 h): 12%

— patent publication US12600732B2, “Bifunctional compounds for degrading BTK via ubiquitin proteosome pathway” (NURIX THERAPEUTICS, INC., priority 2019, dated 2026)
